This assay has as its system Dopaminneurone der SNC. In words: Prevention of MPP^+-induced degeneration of dopamine neurons after local co-injection into the substantia nigra pars compacta; count of intact neurons in cresyl violet stained brain sections. It counts as in vivo, Ratten. As to conditions: for Anzahl intakter Neurone (Mittelwert ± S.E.M.): right SNC. The text has this: Zum Nachweis der protectiven Wirkung der erfindungsgemäßen Verbindungen wurde der toxische Metabolit MPP^+ lokal in die Substantia nigra von Ratten injiziert und somit eine rasch fortschreitende Degeneration der Dopaminneuronen bewirkt.

Molecules are shown by their SMILES.

In the case of `NC(CCCCCP(=O)(O)O)C(=O)O` (stereo not drawn) [AP-7, 2-Amino-7-phosphonoheptansäure], the “Anzahl intakter Neurone (Mittelwert ± S.E.M.)” value is listed as 26 ± 2 (AP-7 0.025 µmol co-injected with MPP^+ (0.025 µmol pro Seite), 4 h after injection, n=3); 91 ± 24 x (AP-7 0.1 µmol co-injected with MPP^+ (0.025 µmol pro Seite), 4 h after injection, n=4); 128 ± 10 xxx (AP-7 0.25 µmol co-injected with MPP^+ (0.025 µmol pro Seite), 4 h after injection, n=9); 79 ± 9 xx (AP-7 0.25 µmol co-injected with MPP^+ (0.025 µmol pro Seite), 8 h after injection, n=4); 66 ± 16 x (AP-7 0.25 µmol co-injected with MPP^+ (0.025 µmol pro Seite), 24 h after injection, n=4). The “neurodegenerativer Effekt von MPP^+ auf die Dopaminneuronen” value (simultaneous local administration with MPP^+ into the substantia nigra of rats, result in words) is reported as “nahezu vollständig auf”.

The values are drawn from patent publication EP0434173A2, “Use of NMDA receptor antagonists for treatment of chronic neurodegenerative diseases” (SCHERING AKTIENGESELLSCHAFT, priority 1989, dated 1991).
